Assay results reported in paper PMC12463534, “Exploring the Anticancer Properties of 4-Phenylthiazole-Based Ru(II) and Os(II) Metallacycles Featuring 1-Methylimidazole as N-Donor Functionality” (Bioinorganic Chemistry and Applications, 2025).
Read-outs that look alike come from different tables or passages of the source.

Key:
[1] = system: SW480 cells; assay: DCFH-DA assay, cellular ROS levels; format: cell-based, human; details: 2 h, concentration dependent
Experimental: For this approach, SW480 cells were subjected to the 2′,7′-dichlorofluorescin-diacetate (DCFH-DA) assay.
SW480 colon adenocarcinoma cells were trypsinized for 5 min in a humidified incubator at 37°C and under a 5% CO2 atmosphere. Supplemented MEM was added to stop trypsinization, and cells were centrifuged for 3 min at 1200 rpm (Heraeus Megafuge 1.0R). After cell counting, SW480 cells were seeded in 100-μL aliquots in densities of 2.5 × 10^4 cells/well into 96-well clear flat-bottom microplates (CytoOne, TC-treated, from Starlab). After incubation for 24 h, cells were washed with 200 μL of Hanks' balanced salt solution (HBSS; Sigma-Aldrich; supplemented with 1% heat-inactivated FCS). […] After washing cells with 200 μL of supplemented HBSS, serially diluted test compounds in phenol-red-free Opti-MEM (Gibco), supplemented with 1% heat-inactivated FCS, were added in 200-μl triplicates and tert-butyl hydroperoxide (TBHP) was applied as positive control. […] Blank-corrected values were calculated relative to negative controls (treated with drug-free supplemented Opti-MEM) from three independent experiments.

[2] = system: Balb/c mice; assay: Toxicity experiments in Balb/c mice (MTD); details: for Toxicity in mice: i.p. 50 mg/kg, three consecutive days, 10% DMSO in 0.9% NaCl; for MTD fold lower compared to 1c and 3c: mice
Experimental: Finally, we were interested in the anticancer activity of selected complexes of our panel in an in vivo mouse setting. Before injecting the compounds in tumor-bearing mice, toxicity experiments were performed. […] On the last day of therapy, most animals were sacrificed and tissues as well as tumors collected. Only four mice (per group) were kept to get information on the impact of the drugs on the overall survival.

[3] = system: A549 lung adenocarcinoma cells; parameters: method as in PMID 38426897; details: MTT assay, exposure time 96 h; ref [5]; read-out: 50% inhibitory concentration A549 (chlorido complexes, reference) (converted); cited from earlier work
[4] = system: SW480 colon adenocarcinoma cells; parameters: method as in PMID 38426897; details: MTT assay, exposure time 96 h; ref [5]; read-out: 50% inhibitory concentration SW480 (chlorido complexes, reference) (converted); cited from earlier work
[5] = system: CH1/PA-1 ovarian teratocarcinoma cells; parameters: method as in PMID 38426897; details: MTT assay, exposure time 96 h; ref [5]; read-out: 50% inhibitory concentration CH1 (chlorido complexes, reference) (converted); cited from earlier work
[6] = system: G4 forming sequences (h-Telo, bcl2, hTERT, Kit1, Kit2) and dsDNA; parameters: method as in PMID 38426897; details: recent work; ref [5]; cited from earlier work
[7] = system: HCT116 colorectal cancer cell line (2D); assay: Resazurin assay, HCT116 2D (monolayer) culture; details: read-out: IC50 2D, resazurin assay, 96 h exposure
Experimental: (§2) Both models were investigated by the fluorimetric resazurin assay after 96-h exposure.
(§3) HCT116 colorectal carcinoma cells (RRID:CVCL_0291 from ATCC) were cultivated in McCoy's 5A medium, supplemented with 10% heat-inactivated fetal bovine serum and 4 mM L-glutamine.
(§4) For 2D experiments, HCT116 cells were harvested from culture flasks by trypsinization, seeded in 100-μL aliquots into 96-well microculture plates (CytoOne, TC-treated, from Starlab) in densities of 2 × 10^3 cells per well, and incubated for 24 h prior to exposure to the test compounds. […] Stock solutions of test compounds were prepared in DMF, which were then diluted in McCoy's 5A-supplemented medium (not to exceed a final content of 0.5% v/v of organic solvent in the test plates), and serial dilutions were added in aliquots of 100 μL per well. […] After incubation for 4 h, fluorescence was measured with a microplate reader (Bio-Tek, SynergyHT) at a wavelength of 530 nm, additionally using a reference wavelength of 620 nm.

[8] = system: HCT116 multicellular tumor spheroids (3D); assay: Resazurin assay, HCT116 3D multicellular tumor spheroids; details: read-out: IC50 3D; HCT116 3D spheroids, resazurin assay, 96 h exposure
Experimental: as §2, §3, §4

[9] = system: SW480 cancer cells; assay: Cellular accumulation (ICP-MS) in SW480 cells; details: 50 μM, 0.5% DMF in MEM, SW480, exposure time 2 h
Experimental: (§1) As the coordinated p-cym and leaving groups are present in all synthesized complexes, we focused on the differently substituted 4-phenylthiazoles for estimated changes in lipophilicity.
Cellular accumulation of the compounds was studied based on a method described previously with modifications. 1.8 × 10^5 SW480 cells per well were seeded in aliquots of 1 mL of complete MEM (see above) into 12-well plates (CytoOne, tissue culture treated, Starlab) and incubated at 37°C for 24 h. Then, cells were exposed for 2 h at 37°C to 50 μM solutions of the test compounds (containing 0.5% DMF) in fresh 0.5 mL of complete MEM upon exchange of the medium. Afterward, cells were washed three times with 1 mL PBS per well, lysed with 0.4 mL sub-boiled HNO3 per well for 1 h at room temperature, and 0.3 mL of each sample was diluted with 7.7 mL Milli-Q water. Adsorption/desorption controls were prepared in the same manner in cell-free wells. Ruthenium content was quantified by ICP-MS using an ICP-quadrupole MS Agilent 7800 instrument (Agilent Technologies, Waldbronn, Germany) as described previously.

[10] = Solubility in 1% DMF/PBS
Description: Solubility is an important factor for the application of metallodrugs. DMF was used as solubilizer to allow comparison to the respective chlorido complexes where the usage of DMSO would lead to stable DMSO adducts.
as §1

[11] = system: G4 forming sequences (h-Telo, bcl2, hTERT, Kit1, Kit2) and dsDNA; assay: FRET melting assay, G-quadruplex / B-DNA interaction; format: binding, human; details: 60 mM potassium cacodylate pH 7.4, 2 h incubation
Experimental: G4s are DNA secondary motifs that play crucial roles in cancer development. […] The complexes were incubated with different G4 forming sequences: one derived from human telomere-forming (h-Telo) and four corresponding to promoter regions of oncogenes, namely, bcl2, hTERT, Kit1, and Kit2. For comparison, a self-complementary sequence called dsDNA was used to represent B-DNA (Table S2).
FRET experiments were conducted using an Applied Biosystems QuantStudio 6 PCR cycler in a 96-well format equipped with a FAM (6-carboxyfluorescein) filter. Oligonucleotide stock solutions, labelled with FAM and TAMRA (6-carboxytetramethylrhodamine) probes, were diluted to the desired concentration in a 60-mM potassium cacodylate buffer (pH 7.4). To fold the oligonucleotides into their B-DNA or G4 topologies, the solutions were heated to 95°C for 5 min and then allowed to cool slowly to room temperature overnight. The final concentration of the oligonucleotides was 0.2 μM, with a total volume of 30 μL in each well. Metal complexes were dissolved in DMF to prepare 2 mM stock solutions and further diluted with the buffer, where DMF concentration never exceeded 0.05%. Mixtures of oligonucleotides and metal compounds were left at room temperature for 2 h. Data were collected twice, each time in duplicate, over a temperature range of 25°C–95°C, with a ramp of 1°C every 30 s. FAM emission data were normalized from 0 to 1 to compare different datasets. After data normalization, we extrapolated the T1/2 values, i.e., the temperature at which normalized FAM emission is 0.5. The DNA concentration is expressed in strands.

[12] = system: A549 lung adenocarcinoma cells; assay: MTT assay, inhibition of cancer cell growth, A549; details: read-out: 50% inhibitory concentration A549, exposure time 96 h
Experimental: (§5) CH1/PA-1 ovarian teratocarcinoma cells (CH1, RRID: CVCL_4992, provided by L. R. Kelland, CRC Center for Cancer Therapeutics, Institute of Cancer Research, Sutton, UK; confirmed by STR profiling as PA-1 ovarian teratocarcinoma cells at Multiplexion, Heidelberg, Germany), SW480 colon adenocarcinoma (RRID: CVCL_0546), and A549 lung adenocarcinoma cells (NCI-H2618, RRID: CVCL_A549; both cell lines were obtained from the American Type Culture Collection (ATCC), Manassas, VA, USA) were grown as adherent cultures in 75-cm^2 culture flasks (Starlab, Hamburg, Germany) by using minimal essential medium (MEM) supplemented with 1 mM sodium pyruvate, 4 mM L-glutamine, 1% (v/v) nonessential amino acids from 100-fold stock (all purchased from Sigma-Aldrich), and 10% heat-inactivated fetal bovine serum (Serana, Pessin, Germany).
(§6) The 3-(4,5-dimethylthiazol-2-yl)-2,5-diphenyl-2H tetrazolium bromide (MTT, Acros Organics, Geel, Belgium) assay was used to detect the cytotoxicity of the compounds after 96-h incubation. For this purpose, cells were harvested from culture flasks by trypsinization, seeded in 100-μL aliquots into 96-well microculture plates (Starlab, UK) in densities of 1 × 10^3 (CH1/PA-1), 2 × 10^3 (SW480), and 3 × 10^3 (A549) cells per well and incubated for 24 h prior to exposure to the test compounds. Stock solutions of test compounds were prepared in DMF, which were then diluted in MEM (not to exceed a final content of 0.5% v/v of organic solvent in the test plates), and serial dilutions were added in aliquots of 100 μL per well. […] After incubation for 4 h, the medium/MTT mixtures were removed, and the produced formazan crystals were dissolved in 150 μL DMSO per well. Optical densities at 550 nm were measured spectrophotometrically with a ELx808 Absorbance Microplate Reader (Bio-Tek, Winooski, VT, USA) by using a reference wavelength of 690 nm to correct for unspecific absorption.

[13] = system: SW480 colon adenocarcinoma cells; assay: MTT assay, inhibition of cancer cell growth, SW480; details: read-out: 50% inhibitory concentration SW480, exposure time 96 h
Experimental: as §5, §6

[14] = system: CH1/PA-1 ovarian teratocarcinoma cells; assay: MTT assay, inhibition of cancer cell growth, CH1/PA-1; details: read-out: 50% inhibitory concentration CH1, exposure time 96 h
Experimental: as §5, §6

[15] = Stability and reactivity in aqueous solution (1H-NMR, UV-vis)
Experimental: The exact concentration of the metal complex stock solutions was calculated on weight-in-volume basis. Complexes were dissolved in water in 1–5 mM concentration.
The path length was 1 cm.
^1H-NMR spectroscopic studies were carried out on a Bruker FT-NMR spectrometer AV NEO 500.10 MHz and a Bruker Avance III HD Ascend 500 Plus instrument. All ^1H-NMR spectra were recorded using a standard Bruker noesygppr1d pulse sequence to suppress water resonance. […] Samples contained 10% (v/v) D2O with a complex concentration of ca. 1 mM. Samples were prepared in pH 1.3 aqueous HCl solution or in pH 7.4 PBS.

Row | Structure (SMILES) | Effect on intracellular ROS levels [1] | Maximal tolerable dose (MTD) for repeated applications ([2]; Balb/c mice, i.p.) | Toxicity in mice ([2]; Balb/c mice) | MTD fold lower compared to 1c and 3c [2] | IC50 [3] | IC50 [4] | IC50 [5] | Stabilization of DNA G-quadruplex structures [6] | IC50 [7] | IC50 [8] | Cellular accumulation, fg Ru/cell [9] | Solubility [10] | Stabilization of oligonucleotides (G4s or B-DNA) [11] | IC50 [12] | IC50 [13] | IC50 [14] | Sensitivity to chloride: replacement of coordinated MeIm ([15]; 3 M KCl, pH 7.4, UV-vis) | Decomposition at pH 7.4 ([15]; PBS pH 7.4, 1 mM complex, 25°C, within 6 days, 1H-NMR) | Behaviour in acidic solution ([15]; pH = 1.0 or 1.3 (HCl), followed in time up to 6 days, 1H-NMR/UV-vis) | Spectral change at pH 10.0 ([15]; pH = 10.0 (NaOH), within 2 days, UV-vis)
1 | Cc1ccc(C(C)C)cc1.[Cl][Ru][c]1ccccc1-c1cscn1 [Compound 1a] | constantly decrease ROS levels with increasing concentrations | 5 mg/kg | highly toxic | 10 fold | 24 µM | 9.5 µM | 3 µM | stabilize DNA G-quadruplex (G4) structures | 18 ± 5 µM | 31 ± 5 µM |  |  |  |  |  |  |  |  |  | 
2 | Cc1ccc(-c2cscn2)[c]([Ru][Cl])c1.Cc1ccc(C(C)C)cc1 [Compound 1d] |  |  |  |  | 34 µM | 19 µM | 14 µM | stabilize DNA G-quadruplex (G4) structures |  |  |  |  |  |  |  |  |  |  |  | 
3 | Cc1ccc(C(C)C)cc1.Cn1cc[n+]([Ru-]2[c]3ccccc3-c3csc[n+]32)c1.O=[N+]([O-])[O-] [Compound 3a, [((3-κN)-1-Methylimidazole)(4-phenylthiazolato-κN,κC2′)(η^6-p-cymene)ruthenium(II)] Nitrate] | constantly decrease ROS levels with increasing concentrations |  | highly toxic | 10 fold |  |  |  |  | 8.4 ± 0.7 µM | 10.6 ± 0.9 µM | 387 ± 16 fg Ru/cell | 9.08 mM | No stabilization | 11 ± 1 µM | 5.4 ± 1.1 µM | 1.9 ± 0.1 µM | could not replace coordinated MeIm | no decomposition | decomposition | no spectral change
